How the values were obtained:
dandruff = settings: 7 subjects; also decreased for placebo
Procedure: (§1) Panellists consisting of males and females were used. Their scalps were assessed to confirm they were suffering from dandruff. The scalps were divided into two, from the centre of the forehead to the nape of the neck. Four sites of similar scalp condition, two on each side of the head, were identified.
(§2) Panellists were assessed for scalp condition then suitable subjects given a placebo shampoo (ie. non anti-dandruff) to use for approximately 5 weeks. They were then asked to return, having not washed their hair or applied products to it for 48 hours. They were re-assessed then tape stripped at one site on each side o: the head ([…]). They then returned to be salon washed, by salon operators, 3 times their week with ½ of each head washed in the placebo and the other ½ in a shampoo containing 1% ZnPTO. After approximately 4 weeks, they were assessed and tape stripped again an adjacent sites to the first two.

scalp stratum corneum = system: scalp stratum corneum
Procedure: as §1, §2
Samples were collected by parting the hair and lightly swabbing with an alcohol swab to remove excess sebum. A total of eight sequential tapestrips were taken from each site. These were stored frozen until required for analysis.
The corneocytes were removed from the tapes by sonicating in methanol and the free lipid was extracted from them in a chloroform/methanol mixture, which was then dried under nitrogen. The residue was reconstituted in chloroform arid the lipid species separated on amino-propyl bonded silica gel columns.
The lipids were then separated and quantified using HPTLC. The lipids analysed were total fatty acids, cholesterol, triglycerides and ceramides. The ceramides were separated into the individual ceramides that are normally seen. The covalently bound lipids were not analysed here. The protein content of the samples were measured and the lipid levels expressed as ng lipid per μg protein. The individual ceramides were also expressed as relative % of total ceramides.

[1] = after vs before, significant only after the ZnPTO treatment

zinc pyrithione [ZnPTO]
Mean dandruff scores after treatment compared with before treatment (dandruff): decreased
Relative % lipids in scalp stratum corneum: Cholesterol (scalp stratum corneum; After ZnPTO, approx 4 weeks, spread 1.4 in row below, Before ZnPTO 11.6 ± 4.5): 8.8%
Relative % lipids in scalp stratum corneum: Ceramides (scalp stratum corneum; After ZnPTO, approx 4 weeks, spread 3.8 in row below, Before ZnPTO 31.0 ± 8.1): 16.4%
Relative % lipids in scalp stratum corneum: Fatty Acids (scalp stratum corneum; After ZnPTO, approx 4 weeks, spread 16.6 in row below, Before ZnPTO 36.0 ± 12.5): 31.8%
Relative % lipids in scalp stratum corneum: Triglycerides (scalp stratum corneum; After ZnPTO, approx 4 weeks, spread 19.2 in row below, Before ZnPTO 21.4 ± 4.8): 43.0%
Mass level of lipid: Fatty Acids (scalp stratum corneum; After ZnPTO: shampoo containing 1% ZnPTO, 3 washes per week, approx 4 weeks, half-head, spread 748.6 in row below, Before ZnPTO 364.9 ± 231.9): 1518.1 ng lipid per μg protein
Mass level of lipid: Cholesterol (scalp stratum corneum; After ZnPTO: shampoo containing 1% ZnPTO, approx 4 weeks, spread 221.8 in row below, Before ZnPTO 108.9 ± 44.3): 478.3 ng lipid per μg protein
Mass level of lipid: Ceramides (scalp stratum corneum; After ZnPTO: shampoo containing 1% ZnPTO, approx 4 weeks, spread 243.9 in row below, Before ZnPTO 284.3 ± 62.4): 841.5 ng lipid per μg protein
Mass level of lipid: Triglycerides (scalp stratum corneum; After ZnPTO: shampoo containing 1% ZnPTO, approx 4 weeks, spread 1911.2 in row below, Before ZnPTO 208.5 ± 77.1): 2539.7 ng lipid per μg protein
Mass level of lipid: Total Lipid (scalp stratum corneum; After ZnPTO: shampoo containing 1% ZnPTO, approx 4 weeks, spread 2056.0 in row below, Before ZnPTO 966.6 ± 282.5): 5377.6 ng lipid per μg protein
Ceramide 6i as % of total ceramides (scalp stratum corneum; After ZnPTO, spread 2.0 in row below, Before ZnPTO 9.2 ± 1.1): 8.0%
Ceramide 6ii as % of total ceramides (scalp stratum corneum; After ZnPTO, spread 2.1 in row below, Before ZnPTO 13.8 ± 2.1): 8.0%
Ceramide 3a as % of total ceramides (scalp stratum corneum; After ZnPTO, spread 2.8 in row below, Before ZnPTO 12.4 ± 1.7): 19.2%
Ceramide 3 as % of total ceramides (scalp stratum corneum; After ZnPTO, spread 4.0 in row below, Before ZnPTO 11.8 ± 3.9): 5.9%
Ceramide 1 as % of total ceramides (scalp stratum corneum; After ZnPTO, spread 5.3 in row below, Before ZnPTO 11.3 ± 4.1): 14.6%
Ceramide 2 as % of total ceramides (scalp stratum corneum; After ZnPTO, spread 5.4 in row below, Before ZnPTO 19.4 ± 4.5): 22.3%
Ceramide 4/5 as % of total ceramides (scalp stratum corneum; After ZnPTO, spread 5.9 in row below, Before ZnPTO 22.2 ± 3.0): 22.1%
Relative composition of the samples after treatment, placebo vs ZnPTO (scalp stratum corneum; after treatment): no significant differences
All the lipids measured, mass levels after ZnPTO treatment compared with before treatment (scalp stratum corneum; after vs before treatment): significantly increased
Change in relative % cholesterol with treatment (scalp stratum corneum; after vs before treatment): do not change
Change in relative % fatty acid with treatment (scalp stratum corneum; after vs before treatment): do not change
Change in relative % ceramide after treatment (scalp stratum corneum; after vs before treatment, also after placebo): significantly decreases
Change in % triglyceride after treatment (scalp stratum corneum; after vs before treatment, significant for ZnPTO): increase in % triglyceride, which is significant for ZnPTO
Change in relative % ceramide 6ii after treatment (scalp stratum corneum; after vs before, after both treatments): statistically significant decrease
Change in relative % ceramide 3a after treatment (scalp stratum corneum; [1]): increase in ceramide 3a
Change in relative % ceramide 3 after treatment (scalp stratum corneum; [1]): decrease in ceramide 3
Level of ceramide, side treated with ZnPTO vs side treated with placebo (scalp stratum corneum; sites sampled after treatment): significantly higher
Level of cholesterol, side treated with ZnPTO vs side treated with placebo (scalp stratum corneum; sites sampled after treatment): significantly higher

Source: patent US20030068289A1, “Skin treatment” (Unilever Home & Personal Care USA, Division of Conopco, Inc., priority 2001, published 2003)
